# In patent US12091395B2, “Griseofulvin compound” (Daiichi Sankyo Company, Limited, priority 2016, dated 2024):
# System: TNF-α
# Assay: Determination of TNF-α inhibition rate (LPS-induced inflammation in mice, serum TNF-α)
# Format: in vivo
# Conditions: Mus musculus, 1 h, oral 100 mg/kg in 0.5% methyl cellulose, LPS 0.4 mg/kg i.p. one hour later, serum TNF-α one hour after LPS
# Experimental: A test substance was suspended in a 0.5%. (w/v) methyl cellulose and orally administered to mice at a dose of 100 mg/kg. One hour later, a lipopolysaccharide (LPS, Sigma-Aldrich, L2630 (trade name)) (0.4 mg/kg) was intraperitoneally administered to induce inflammation. One hour after administration of LPS, blood was taken from the vena cava under anesthesia with isoflurane, placed in a tube containing a serum separating agent, allowed to stand still at room temperature for 20-30 minutes and centrifuged at 4° C. at 12,000 rpm for 5 minutes to obtain the serum. Thereafter, the amount of the TNF-α in the serum was measured by using Mouse TNF-α Elisa Kit (Invitrogen, KMC3011C (trade name)) or Mouse TNF-α Immunoassay Kit (PerkinElmer, AL505 (trade name)) in accordance with the protocol of the kit. The serum was diluted 10 times with the dilution solution contained in the kit and put in use.
# TNF-α inhibition rate (%) of the test substance was calculated in accordance with the following expression. TNF-α inhibition rate (%)=[(TNF-α amount of control group)−(TNF-α amount of test substance administration group)]×100/(TNF-α amount of control group)
compound,measurement,value
"COC1=CC(=O)C[C@@H](C)[C@]12Oc1c(Cl)c(-c3nnc([C@@H](C)O)o3)cc(OC)c1C2=O [Example 10, (2S,5′R)-7-Chloro-6-[5-[(1R)-1-hydroxyethyl]-1,3,4-oxadiazol-2-yl]-3′,4-dimethoxy-5′-methyl-spiro[benzofuran-2,4′-cyclohex-2-ene]-1′,3-dione]",inhibition in vivo at 100 mg/kg,58%
"COC1=CC(=O)C[C@@H](C)[C@]12Oc1c(Cl)c(-c3nc(C)no3)cc(OC)c1C2=O [Example 6, (2S,5′R)-7-Chloro-3′,4-dimethoxy-5′-methyl-6-(3-methyl-1,2,4-oxadiazol-5-yl)spiro[benzofuran-2,4′-cyclohex-2-ene]-1′,3-dione]",inhibition in vivo at 100 mg/kg,55%
"COC1=CC(=O)C[C@@H](C)[C@]12Oc1c(Cl)c(-c3noc(C)n3)cc(OCCO)c1C2=O [Example 16, (2S,5′R)-7-Chloro-4-(2-hydroxyethoxy)-3′-methoxy-5′-methyl-6-(5-methyl-1,2,4-oxadiazol-3-yl)spiro[benzofuran-2,4′-cyclohex-2-ene]-1′,3-dione]",inhibition in vivo at 100 mg/kg,62%
"COC1=CC(=O)C[C@@H](C)[C@]12Oc1c(Cl)c(-c3nnc([C@H](C)O)o3)cc(OC)c1C2=O [Example 9, (2S,5′R)-7-Chloro-6-[5-[(1S)-1-hydroxyethyl]-1,3,4-oxadiazol-2-yl]-3′,4-dimethoxy-5′-methyl-spiro[benzofuran-2,4′-cyclohex-2-ene]-1′,3-dione]",inhibition in vivo at 100 mg/kg,65%
"COC1=CC(=O)C[C@@H](C)[C@]12Oc1c(Cl)c(OCCO)cc(OC)c1C2=O [Example 1, (2S,5′R)-7-Chloro-6-(2-hydroxyethoxy)-3′,4-dimethoxy-5′-methyl-spiro[benzofuran-2,4′-cyclohex-2-ene]-1′,3-dione]",inhibition in vivo at 100 mg/kg,62%
"COC1=CC(=O)C[C@@H](C)[C@]12Oc1c(Cl)c(-c3nnc(C)o3)cc(OCCO)c1C2=O [Example 14, (2S,5′R)-7-Chloro-4-(2-hydroxyethoxy)-3′-methoxy-5′-methyl-6-(5-methyl-1,3,4-oxadiazol-2-yl)spiro[benzofuran-2,4′-cyclohex-2-ene]-1′,3-dione]",inhibition in vivo at 100 mg/kg,24%
"CCOc1cc(-c2nnc(C(C)(C)O)o2)c(Cl)c2c1C(=O)[C@@]1(O2)C(OC)=CC(=O)C[C@H]1C [Example 11, (2S,5′R)-7-Chloro-4-ethoxy-6-[5-(1-hydroxy-1-methyl-ethyl)-1,3,4-oxadiazol-2-yl]-3′-methoxy-5′-methyl-spiro[benzofuran-2,4′-cyclohex-2-ene]-1′,3-dione]",inhibition in vivo at 100 mg/kg,61%
"COC1=CC(=O)C[C@@H](C)[C@]12Oc1c(Cl)c(-c3nc(C)no3)cc(OCCO)c1C2=O [Example 15, (2S,5′R)-7-Chloro-4-(2-hydroxyethoxy)-3′-methoxy-5′-methyl-6-(3-methyl-1,2,4-oxadiazol-5-yl)spiro[benzofuran-2,4′-cyclohex-2-ene]-1′,3-dione]",inhibition in vivo at 100 mg/kg,55%
"COC1=CC(=O)C[C@@H](C)[C@]12Oc1c(Cl)c(-c3ccn(C)n3)cc(OC)c1C2=O [Example 3, (2S,5′R)-7-Chloro-3′,4-dimethoxy-5′-methyl-6-(1-methylpyrazol-3-yl)spiro[benzofuran-2,4′-cyclohex-2-ene]-1′,3-dione]",inhibition in vivo at 100 mg/kg,65%
"CCOc1cc(-c2nnc([C@H](C)O)o2)c(Cl)c2c1C(=O)[C@@]1(O2)C(OC)=CC(=O)C[C@H]1C [Example 12, (2S,5′R)-7-Chloro-4-ethoxy-6-[5-[(1S)-1-hydroxyethyl]-1,3,4-oxadiazol-2-yl]-3′-methoxy-5′-methyl-spiro[benzofuran-2,4′-cyclohex-2-ene]-1′,3-dione]",inhibition in vivo at 100 mg/kg,61%
"COC1=CC(=O)C[C@@H](C)[C@]12Oc1c(Cl)c(-c3nnc(C(C)(C)O)o3)cc(OC)c1C2=O [Example 8, (2S,5′R)-7-Chloro-6-[5-(1-hydroxy-1-methyl-ethyl)-1,3,4-oxadiazol-2-yl]-3′,4-dimethoxy-5′-methyl-spiro[benzofuran-2,4′-cyclohex-2-ene]-1′,3-dione]",inhibition in vivo at 100 mg/kg,38%
COC1=CC(=O)C[C@@H](C)[C@]12Oc1c(Cl)c(OC)cc(OC)c1C2=O [Griseofulvin],inhibition in vivo at 100 mg/kg,19%
"COC1=CC(=O)C[C@@H](C)[C@]12Oc1c(Cl)c(-c3nc(C(C)O)no3)cc(OC)c1C2=O (stereo partly drawn) [Example 13, (2S,5′R)-7-Chloro-6-[3-(l-hydroxyethyl)-1,2,4-oxadiazol-5-yl]-3′,4-dimethoxy-5′-methyl-spiro[benzofuran-2,4′-cyclohex-2-ene]-1′,3-dione]",inhibition in vivo at 100 mg/kg,82%
"COCCOc1cc(OC)c2c(c1Cl)O[C@]1(C2=O)C(OC)=CC(=O)C[C@H]1C [Example 2, (2S,5′R)-7-Chloro-3′,4-dimethoxy-6-(2-methoxyethoxy)-5′-methyl-spiro[benzofuran-2,4′-cyclohex-2-ene]-1′,3-dione]",inhibition in vivo at 100 mg/kg,71%
"COC1=CC(=O)C[C@@H](C)[C@]12Oc1c(Cl)c(-c3noc(C)n3)cc(OC)c1C2=O [Example 7, (2S,5′R)-7-Chloro-3′,4-dimethoxy-5′-methyl-6-(5-methyl-1,2,4-oxadiazol-3-yl)spiro[benzofuran-2,4′-cyclohex-2-ene]-1′,3-dione]",inhibition in vivo at 100 mg/kg,65%
"CCn1ccc(-c2cc(OC)c3c(c2Cl)O[C@]2(C3=O)C(OC)=CC(=O)C[C@H]2C)n1 [Example 4, (2S,5′R)-7-Chloro-6-(1-ethylpyrazol-3-yl)-3′,4-dimethoxy-5′-methyl-spiro[benzofuran-2,4′-cyclohex-2-ene]-1′,3-dione]",inhibition in vivo at 100 mg/kg,73%
"COC1=CC(=O)C[C@@H](C)[C@]12Oc1c(Cl)c(-c3nnc(C)o3)cc(OC)c1C2=O [Example 5, (2S,5′R)-7-Chloro-3′,4-dimethoxy-5′-methyl-6-(5-methyl-1,3,4-oxadiazol-2-yl)spiro[benzofuran-2,4′-cyclohex-2-ene]-1′,3-dione]",inhibition in vivo at 100 mg/kg,70%
